# What was measured:
# BRD3-NUT = system: T1, BRD3-NUT; assay: IHC of 10326 xenograft tumours, NUT protein; format: in vivo, mice; conditions: day 21, 2 mg/kg BI 894999
# T1 construct: endogenous in cells; host or cells: 10326 NUT carcinoma cells, in culture (A11) and as subcutaneous xenograft tumours in NOG mice (A26)
# Method: Immunohistochemistry was performed on formalin-fixed, paraffin-embedded tumour tissue using antibodies against human Ki67(Cell Signaling #9027, 1:400 dilution), anti-human mitochondria (Abcam ab92824, 1:1000 dilution) and against endogenous NUT protein (Cell Signaling #3625, 1:50 dilution) used to detect NUT fusion proteins. Digital images of whole tissue sections were acquired using a Leica SCN400 histology scanner (Leica Microsystems). Ki67-positive index was evaluated using Halo Software V. 3.2 (Indica lab). Regions of interest (ROIs) within the tissue sections were first identified using Halo Software via machine learning technology across pathological samples and tissue control, within these ROIs, nuclei were detected and classified as positive or negative based on IHC staining thresholds.
# BRD3-NUT 10326 tumor sections after treatment with 2 mg/kg BI 894999, 5 mg/kg or 10 mg/kg CCS1477 and the combination of both. IHC staining for NUT protein.
# [1] = system: Ty-82 xenograft (BRD4-NUT); assay: Ty-82 NC xenograft model; format: in vivo, mice; conditions: 2 mg/kg BI 894999 p.o. daily
# Text: Mice were group-housed (8–10 mice per cage) under pathogen-free and controlled environmental conditions (21 ± 1.5 C temperature, 55 ± 10% humidity) in an AAALAC accredited facility and handled according to the institutional, governmental and European Union guidelines (Austrian Animal Protection Laws, GV-SOLAS and FELASA guidelines). Animal studies were approved by the internal ethics committee and the local government committee. Mice were 6- to 8-week-old female CIEA NOG purchased from Taconic, Denmark (NOD.Cg-Prkdc^scid Il2rg^tm1Sug/JicTac). 5 × 10^6 NC tumour cells were injected subcutaneously into the right flank of the mice (1 site per mouse). Mice were randomly distributed between the treatment and the vehicle control when tumours were well established and had reached volumes of 100–150 mm^3. Compounds were suspended in 0.5% Natrosol and administered once daily intra-gastral by gavage needle. Tumour diameters were measured three times a week with a calliper. […] Within each subtopic the p-values of the efficacy parameters were adjusted for multiple comparisons according to Bonferroni–Holm. The p-values of the tolerability parameter remained unadjusted in order not to overlook a possible adverse effect. The level of significance was fixed at α = 5%. An adjusted p-value of less than 0.05 was considered to show a statistically significant difference between the groups. The statistical evaluation was prepared using the software Graph Pad Prism.
# HEXIM1 and HIST2H2BF = assay: Nanostring analysis of pathway modulation markers in patient blood; format: in vivo; conditions: patients
# Method: (§1) Schedule B (NCT02516553): daily oral treatment from Day 1 to Day 14 at 2.5 mg/day followed by a week-off in 3-week cycles. Schedule C (NCT02516553): one week-on, one week-off treatment, repeated every two weeks in 4-week cycles with, at each treatment week, a loading dose (6 mg) on Day 1 followed by a maintenance dose (3 mg per day) on the following 6 days.
# Total RNA was extracted from whole blood using PAXgene Blood RNA kit (Qiagen) following the manufacturers’ instructions. Total RNA was quantified by direct absorbance measurement at 260 nm using a NanoDrop Spectrophotometer. Quality check was performed by additional measurement of absorbance at 280 nm and calculation of the absorbance ratio OD260/OD280.
# mRNA expression was assessed using a custom NanoString nCounter codeset generated for the genes of interest plus housekeeping genes. In brief, probes were hybridised to 150 ng of total RNA for 19 h at 65 °C and applied to the nCounter™ Preparation Station for automated removal of excess probe and immobilisation of probe‐transcript complexes on a streptavidin‐coated cartridge. Data was collected using the nCounter™ Digital Analyzer by counting the individual barcodes.
# Data were analysed using an in-house analysis pipeline that follows the latest Nanostring Technologies standards for the analysis of nCounter data. The analysis pipeline includes QC of the raw data using the NACHO [26]. The housekeeping genes ACTB, GAPDH, HPRT1, MGAT1 and TMED9 were used for normalisation. After normalisation expression values were exported and used for figure generation using […] [27].
# BRD4-NUT = system: T2, BRD4-NUT; assay: Immunofluorescence staining of NUT megadomains, Ty-82; format: cell-based, human
# T2 construct: endogenous in cells; host or cells: Ty-82 NUT carcinoma cells
# Method: Cells were seeded on four-well chamber slides (Merck Millipore, #PEZGS0416). After treatment, cells were fixed with 4% PFA (16% Solution, Thermo Fischer #28908 Paraformaldehyde, diluted 1:4 in PBS), permeabilised with 0,1% TX-100 (Sigma #93443, diluted in PBS). After blocking in blocking buffer (10% normal goat serum, Sigma #G9023–10ml, diluted in blocking solution: 2% BSA/PBS, Sigma #A7284–50ml, diluted 1:15 in PBS), the first antibody mAB rabbit anti-NUT 1:1000 (clone C52B1, Cell Signaling #3625) in blocking buffer was added, followed by incubation with the 2nd antibody goat anti-rabbit Alexa*488 1:1000 (Thermo Fisher, #A-11008) in blocking buffer in the dark. Cells were mounted with ProLong Gold Antifade Mountant with DAPI (Thermo Fisher, #P36931) and analysed using a Laser scanning microscope (LSM700). […]
# Immunofluorescence staining of NUT megadomains on NC Ty-82 treated with BI with BI 894999 30nM for 1 h, then changed to 10 nM or 5 nM or 2.5 nM or control for 24 h.
# [2] = Phase I trial MTD and platelet counts (NCT02516553); format: in vivo; conditions: patients
# Method: as §1
# NC cell lines = assay: Cell proliferation assays, all four NC lines (summary); format: cell-based, human
# Method: The NUT Carcinoma cell line Ty-82 was purchased from JCRB Japan No. 1330 and cultivated in RPMI 1640 supplemented with 10% fetal calf serum (FCS). The NC cell lines 10–15, 14169 and 10326 were in-licensed from Christopher French, Brigham & Womens Hospital, Boston, and were cultivated in DMEM supplemented with glutamax and 10% FCS.
# Viability assays were performed on 96-well flat-bottom microtiter plates and incubated with Alamar Blue solution (Invitrogen, Carlsbad, US-CA). The effects of drug combinations were analysed using the Bliss Independence Model.
# HEXIM1 = HEXIM1 modulation in mouse blood; format: in vivo; conditions: mice; 2 mg/kg p.o.
# Text: Cmax and PD modulation of Ty-82 tumors treated with BI 894999.
# [3] = GI50, depending on the NC cell line
smiles,measurement,setting,value
CNc1nc(-c2nc3ccc(N4CCN(C)CC4)cc3n2Cc2ccccc2)cn2c(C)nnc12 [BI 894999],speckled megadomain localisation (NUT staining),BRD3-NUT,complete loss
same,TGI (tumour growth inhibition),[1],5%
same,pharmacodynamic modulation of HEXIM1 and HIST2H2BF,HEXIM1 and HIST2H2BF; Schedule B 2.5 mg,max. two-fold
same,PD modulation of HEXIM1 and HIST2H2BF,"HEXIM1 and HIST2H2BF; Schedule C 6/3 mg, maximum",up to four-fold
same,PD modulation of HEXIM1 and HIST2H2BF still measurable,"HEXIM1 and HIST2H2BF; Schedule C, 23.5 h after drug application",two-fold
same,time to detachment of BRD-NUT from chromatin,"BRD4-NUT; 10–30 nM in Ty-82, 3–10 nM in 10326",≤ 30 min
same,concentration at which BRD4-NUT detaches from chromatin / is re-distributed,"BRD4-NUT; Ty-82, 30 min treatment",10 to 30 nM
same,speckled staining (BRD-NUT bound to chromatin) after washout,BRD4-NUT; washout experiments,quickly restored
same,tolerability as measured by platelet nadir counts,"[2]; Schedule C compared to Schedule B at MTD, comparable 6-week cumulative dose (72 vs 70 mg)",better tolerability
same,thrombocytopenia events,[2]; Schedule C versus Schedule B at equivalent 6-week cumulative dose,less >Grade 3 thrombocytopenia events
same,"MTD, loading dose","[2]; Schedule C, Day 1",6 mg
same,"MTD, maintenance dose","[2]; Schedule C, following 6 days",3 mg
same,fold more potent than JQ1 and GSK525762,NC cell lines; [3],40–60 fold
same,more potent than the dual BET/p300 inhibitor NEO2734,NC cell lines; [3],10–20
same,GI50,"NC cell lines; Homo sapiens, TY82, Ty-82, 10–15, 14169, 10326, read-out: GI50 (geomean), range over all NC lines",0.9 to 2.6 nM
same,HEXIM1 modulation in the blood,HEXIM1,~ 2 fold
